How the values were obtained:
[1] = target: T1, Substance-K receptor (Cavia porcellus) (UniProt Q64077); test: Antagonistic activity against Tachykinin receptor 2 binding to [b-Ala8] NKA(4-10) in isolated guinea pig trachea
T1 sequence (whole entry): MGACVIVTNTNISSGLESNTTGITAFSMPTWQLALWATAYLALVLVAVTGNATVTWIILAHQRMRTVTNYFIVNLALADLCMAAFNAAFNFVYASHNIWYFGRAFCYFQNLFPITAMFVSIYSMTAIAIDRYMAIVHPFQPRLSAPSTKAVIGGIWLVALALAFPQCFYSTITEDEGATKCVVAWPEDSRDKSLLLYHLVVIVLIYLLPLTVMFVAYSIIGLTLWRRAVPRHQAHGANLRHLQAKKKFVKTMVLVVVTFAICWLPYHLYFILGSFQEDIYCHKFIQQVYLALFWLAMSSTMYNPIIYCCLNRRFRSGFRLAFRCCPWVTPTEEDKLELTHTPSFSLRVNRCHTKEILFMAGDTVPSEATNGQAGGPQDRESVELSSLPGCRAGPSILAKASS

[2] = Tested for the ability to inhibit maximum contraction obtained in the presence of [b-Ala8] NKA(4-10) in isolated guinea pig trachea
[3] = target: T2, Substance-K receptor (Bos taurus, UniProt P05363); test: Binding affinity against bovine Tachykinin receptor 2
T2 sequence (P05363 whole entry): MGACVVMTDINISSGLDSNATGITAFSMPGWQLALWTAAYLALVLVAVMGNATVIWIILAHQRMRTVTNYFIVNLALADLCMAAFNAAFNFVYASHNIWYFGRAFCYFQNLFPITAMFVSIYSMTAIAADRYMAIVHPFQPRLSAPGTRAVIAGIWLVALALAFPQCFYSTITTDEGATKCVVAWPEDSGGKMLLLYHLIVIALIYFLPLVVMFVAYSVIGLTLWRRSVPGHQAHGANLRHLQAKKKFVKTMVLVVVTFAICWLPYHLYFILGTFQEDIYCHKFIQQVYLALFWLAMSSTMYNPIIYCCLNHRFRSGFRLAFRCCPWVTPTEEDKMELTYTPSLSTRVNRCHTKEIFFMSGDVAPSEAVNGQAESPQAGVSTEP

**Q.** Which results are given for CN(C[C@H](CCN1CCC(O)(c2ccccc2)CC1)c1ccc(Cl)c(Cl)c1)C(=O)c1ccccc1N?
**A.** pKb [1]: 9.4; Response [2]: 98.2%

**Q.** Which pKb [1] does the source give for CN(C[C@H](CCN1CCC(O)(c2ccccc2)CC1)c1ccc(Cl)c(Cl)c1)C(=O)c1ccccc1N=C=S here?
**A.** 8.5

**Q.** What about the Response [2] of the same compound?
**A.** 95.5%

**Q.** Which pKb [1] does the source give for CN(C[C@H](CCN1CCC(O)(c2ccccc2)CC1)c1ccc(Cl)c(Cl)c1)C(=O)c1ccc([N+](=O)[O-])cc1 here?
**A.** 8.55

**Q.** What about the Response [2] of the same compound?
**A.** 98%

**Q.** For CN(C[C@H](CCN1CCC(O)(c2ccccc2)CC1)c1ccc(Cl)c(Cl)c1)C(=O)c1ccccc1, which Response [2] is on record?
**A.** 93.3%

**Q.** Which pKb [1] does the source give for CN(C[C@H](CCN1CCC(O)(c2ccccc2)CC1)c1ccc(Cl)c(Cl)c1)C(=O)c1ccc(N=C=S)cc1 here?
**A.** < 8

**Q.** What about the Response [2] of the same compound?
**A.** 97.6%

**Q.** What does the source list for CC(=O)Nc1ccccc1C(=O)N(C)C[C@H](CCN1CCC(O)(c2ccccc2)CC1)c1ccc(Cl)c(Cl)c1?
**A.** pKb [1]: < 8; Response [2]: 98.3%

**Q.** For CN(C[C@H](CCN1CCC(O)(c2ccccc2)CC1)c1ccc(Cl)c(Cl)c1)C(=O)c1ccccc1[N+](=O)[O-], which pKb [1] is on record?
**A.** 8.5

**Q.** What about the Response [2] of the same compound?
**A.** 92.7%

**Q.** For CN(CC(CCN1CCC(O)(c2ccccc2)CC1)c1ccc(Cl)c(Cl)c1)C(=O)c1ccccc1 (stereo unspecified), which Ki [3] is on record?
**A.** 1 nM

**Q.** For CN(C[C@H](CCN1CCC(O)(c2ccccc2)CC1)c1ccc(Cl)c(Cl)c1)C(=O)c1ccc(NC(=O)CBr)cc1, which pKb [1] is on record?
**A.** 8.3

**Q.** What about the Response [2] of the same compound?
**A.** 96%

**Q.** Which pKb [1] does the source give for CN(C[C@H](CCN1CCC(O)(c2ccccc2)CC1)c1ccc(Cl)c(Cl)c1)C(=O)c1cccc([N+](=O)[O-])c1 here?
**A.** < 8

**Q.** And the Response [2]?
**A.** 98.6%

**Q.** Which pKb [1] does the source give for CN(C[C@H](CCN1CCC(O)(c2ccccc2)CC1)c1ccc(Cl)c(Cl)c1)C(=O)c1ccc(N)cc1 here?
**A.** 9.1

**Q.** And the Response [2]?
**A.** 95.9%

**Q.** For CN(C[C@H](CCN1CCC(O)(c2ccccc2)CC1)c1ccc(Cl)c(Cl)c1)C(=O)c1cccc(NC(=O)CBr)c1, which pKb [1] is on record?
**A.** < 8

**Q.** And the Response [2]?
**A.** 98%

**Q.** What does the source list for CC(=O)Nc1ccc(C(=O)N(C)C[C@H](CCN2CCC(O)(c3ccccc3)CC2)c2ccc(Cl)c(Cl)c2)cc1?
**A.** pKb [1]: 8.4; Response [2]: 96.6%

**Q.** Which results are given for CC(=O)NC1(c2ccccc2)CCN(CCC(CN(C)C(=O)c2ccccc2)c2ccc(Cl)c(Cl)c2)CC1 (single isomer, unassigned) [SAREDUTANT]?
**A.** pKb [1]: 9.1; Ki [3]: 0.5 nM

**Q.** Which results are given for CN(C[C@H](CCN1CCC(O)(c2ccccc2)CC1)c1ccc(Cl)c(Cl)c1)C(=O)c1ccc(F)cc1?
**A.** pKb [1]: 9.7; Response [2]: 94.7%

**Q.** With CN(C[C@H](CCN1CCC(O)(c2ccccc2)CC1)c1ccc(Cl)c(Cl)c1)C(=O)c1cccc(N)c1 as the compound, how does the pKb [1] read?
**A.** 9.4

**Q.** And the Response [2]?
**A.** 97.4%

**Q.** What does the source list for CN(C[C@H](CCN1CCC(O)(c2ccccc2)CC1)c1ccc(Cl)c(Cl)c1)C(=O)c1ccccc1NC(=O)CBr?
**A.** pKb [1]: < 8; Response [2]: 97.1%

**Q.** What does the source list for CC(=O)Nc1cccc(C(=O)N(C)C[C@H](CCN2CCC(O)(c3ccccc3)CC2)c2ccc(Cl)c(Cl)c2)c1?
**A.** pKb [1]: < 8; Response [2]: 96.3%

**Q.** For CN(C[C@H](CCN1CCC(O)(c2ccccc2)CC1)c1ccc(Cl)c(Cl)c1)C(=O)c1cccc(N=C=S)c1, which pKb [1] is on record?
**A.** < 8

**Q.** What about the Response [2] of the same compound?
**A.** 95.8%
